Measurements as given in patent US20120197059A1, “UBIQUITIN INTERACTING MOTIF PEPTIDES AS CANCER THERAPEUTICS” (priority 2011, published 2012).

Experiments:
[1] = system: DKO MECs; assay: BrdU labeling of mouse endothelial cells; format: cell-based
Experimental: BrdU labeling. BrdU labeling of Mouse Endothelial Cells. WT and DKO MECs were grown in a 48-well plate until they reached 50% percent confluency. Cells were starved overnight and stimulated with growth factors or growth factors plus inhibitors for 6 h. BrdU labeling and detection kit (Roche) was then used to label the proliferating cells. Briefly, cells were incubated with BrdU labeling medium (1:500 diluted in medium) for 3 h. Cells were washed three times with wash buffer and fixed with ethanol for 20 min at −20° C. followed by washing the cells three times with wash buffer and incubated with 6M HCl/0.1% Triton for 30 minutes at room temperature. This was followed by six washes with PBS/0.1% Triton. Cells were blocked with PBS/0.3% Triton/3% BSA/3% donkey serum for 30 min at room temperature followed by incubation with anti-BrdU working solution for 30 minutes at 37° C. After three washes with wash buffer cells were again incubated with donkey anti-mouse Ig-fluorescein for 30 minutes at 37° C. After washing the cells three times with wash buffer they were stained with DAPI and visualized using Olympus Fluorescent microscope. Percentage of proliferating cells was calculated based on the ratio of BrdU-positive cells versus DAPI-positive cells.

[2] = system: retina angiogenesis; assay: Retinal angiogenic sprouting in EC-iDKO P6 pups, isolectin B4 staining; format: in vivo, mice; conditions: IP/intraocular injection
Experimental: Immunohistochemistry and immunofluorescence of tissue samples. Immunohistochemistry and immunofluorescence were performed as described with modifications (Chen et al., 1998; Chen et al., 2009). • E9/10 Hind Brain: Embryos were harvested at E9 or E10 and fixed. Hindbrain was harvested and processed for staining with anti-CD31 and donkey anti-rat Alex Fluor 488 secondary antibody. • P6 Skin: Wild-type or EC-iDKO pups were injected intraperitoneally with 5 mg/kg (body weight) of 4-hydroxytamoxifen (10 mg/ml of 4-Hydroxytamoxifen resuspended in 10% of ethanol and 90% of DMSO) per day from postnatal day 1 (P1) to P3. Pups were euthanized at P6 and skin from abdomen was harvested and processed for whole mount staining with anti-CD31 and donkey anti-rat Alexa Fluor 488 secondary antibody. • P6 Retina: Wild-type or EC-iDKO Pups were injected with 4-hydroxytamoxifen as described above per day from postnatal day 2 (P2) to P4. P6 pups were euthanized and whole eyes harvested. […]
Receptor tyrosine kinase inhibitors injection. […] For western blot analysis, skin and heart tissues were collected from WT P6 pups injected either with DMSO or inhibitors and analyzed for phospho-Akt and total Akt.

[3] = cited from earlier work
[4] = system: gliomas; conditions: given before, at the time of or after tumor implantation; cited from earlier work
[5] = free acid; cited from earlier work
[6] = in vivo; cited from earlier work
[7] = system: VEGFR-2; assay: VEGF signaling assay with Dynasore, western blotting; format: cell-based, human; conditions: HUVEC, 40 or 80 μM Dynasore, VEGF-A 50 ng/ml

CC(C)c1cc(/C=C(\C#N)C(=O)NCCCc2ccccc2)cc(C(C)C)c1O [inhibitors to VEGFR-2]
VEGF-increased proliferation of DKO MECs [1]: abrogated | elevated angiogenic sprouting in EC-iDKO retina [2]: reversed

CC(C)(C)[N+]([O-])=Cc1ccccc1 [PBN, phenyl N-tert-butyl nitrone]
tissue distribution ([3]; rat, in vivo): readily and rapidly distributed almost equally to all tissues | half-life ([3]; rats): about 132 minutes | glioma tumor development [4]: able to control tumor development

CC(C)(C)[N+]([O-])=Cc1ccc(S(=O)(=O)O)cc1S(=O)(=O)O [2,4-ds PBN, 2,4-disulfonyl phenyl-tert-butyl nitrone]
solubility in water [5]: greater than 1 gram/ml | efficacy as compared to PBN [6]: unexpected increase | potency as compared to PBN [6]: increase in potency | toxicity as compared to PBN [6]: marked and highly significant decrease

O=C(N/N=C/c1ccc(O)c(O)c1)c1cc2ccccc2cc1O [Dynasore]
total levels of VEGFR-2 and phosphorylation of VEGFR-2 and its downstream signaling effectors [7]: dramatically increased
